Counter-ions that a name gives are not always drawn.

Common to all, as to format: cell-based
For experiment [1], the system named is T47D cells. The experiment can be described thus: Apoptosis induction (PARP cleavage, Caspase-Glo 3/7) in T47D cells. The method, then:
(§1) Tumor cells were seeded in 384-well plates at a concentration of 1000-2500 cells/well/25 μL depending on cell lines. After overnight incubation, cells were treated with compounds (5 μL). Then, Caspase 3/7 activities were determined at 24 to 48 hours post-treatment using Caspase-Glo3/7 assay kits (Promega Cat # G8212).
The combination effects of PI3K inhibitors and other agent were evaluated using combination index isobologram analysis (Chou et al. Pharmacology Reviews 2006). The efficacy parameters were the median effect in a 72-hour cell proliferation assay and the 24- or 48-hour Caspase 3/7 activity assay described above. Briefly, cells were plated in 384-well plate with 25 μl medium. […] The corresponding component doses of D1 and D2 at the E(I)C50/E(I)C90 were calculated and used for plotting isobolograms. The multiple drug effect was analyzed as described by Chou et al. (Pharmacology Reviews 2006) and the combination index was calculated using the formula: Combination Index=[D1x]/D1′+[D2x]/D2′ where D1x and D2x refer to the Drug 1 and Drug 2 concentration at EC50/IC50 or EC90/IC90, respectively, in combination; and D1′ and D2′ refer to the EC50/IC50 or EC90/IC90 values of D1 and D2, respectively, as single agents. […]

Experiment [2] deals with MDA-MB-468 tumor cells. The experiment can be described thus: Apoptosis induction (PARP cleavage) in MDA-MB-468 cells. The note with it: PTEN null, EGFR high, Bcl-2 negative MDA-MB-468. The method, then: as §1
The cellular expression of the mTORC2 component Rictor was assessed by western blot analysis (A). Induction of PARP cleavage by compound A treatment in combination with inhibition of mTORC1 or mTORC2 (B). shControl and shRictor MDA-MB468 cells were treated with indicated agents for 48 hours, and cleavage of PARP was analyzed. GAPDH was used as an internal protein control.

Experiment [3] concerns T47D cells. The experiment can be described thus: 72-hour tumor cell proliferation assay in T47D cells. The following applies: T47D (PIK3CA mut). How it is done: In accordance with the invention, the compound were assessed in a cell-based assay that measures the capacity of the compounds to inhibit tumor cell proliferation following a 72-hour drug exposure. Cell viability was conducted by Invitrogen (breast Oncopanel, Invitrogen, USA), or was determined using CellTiter-Glo® Luminescent Cell Viability Assay (Promega) as follows. Cells were plated at 300-5000 cells/well depending on the cell lines or microtiter plates (96- or 384-well) in 100 μL growth medium in 96-well and 20 μL growth medium in 384-well microtiterplate. For each cell line assayed, cells were plated onto a separate plate for determination of luminescence at t=0 hour and t=72 hour time points. Following overnight incubation at 37° C., luminescence values for the t=0 samples were determined. Dose plates for the t=72 hour time points were treated with compounds diluted into growth medium. Cells were then incubated for 72 hours at 37° C. Luminescence values for the t=72 hour samples were determined. For data analysis, briefly, t=0 values were subtracted from those determined for the t=72 hour time points, for both the treated and untreated samples. Percent differences in luminescence between drug-treated and control values were used to determine the percent inhibition of growth. […]

For experiment [4], the system named is MDA-MB-468 tumor cells. As to the kind of experiment: Tumor cell proliferation assay in MDA-MB-468 cells. The note with it: PTEN null, EGFR high, Bcl-2 negative MDA-MB-468. How it is done: In accordance with the invention, the compound were assessed in a cell-based assay that measures the capacity of the compounds to inhibit tumor cell proliferation following a 72-hour drug exposure. Cell viability was conducted by Invitrogen (breast Oncopanel, Invitrogen, USA), or was determined using CellTiter-Glo® Luminescent Cell Viability Assay (Promega) as follows. Cells were plated at 300-5000 cells/well depending on the cell lines or microtiter plates (96- or 384-well) in 100 μL growth medium in 96-well and 20 μL growth medium in 384-well microtiterplate. For each cell line assayed, cells were plated onto a separate plate for determination of luminescence at t=0 hour and t=72 hour time points. Following overnight incubation at 37° C., luminescence values for the t=0 samples were determined. […] Luminescence values for the t=72 hour samples were determined. For data analysis, briefly, t=0 values were subtracted from those determined for the t=72 hour time points, for both the treated and untreated samples. Percent differences in luminescence between drug-treated and control values were used to determine the percent inhibition of growth.
The combination effects of PI3K inhibitors and other agent were evaluated using combination index isobologram analysis (Chou et al. Pharmacology Reviews 2006). […]

Experiment [5] relates to breast tumor cells (BT-20, BT-474, KPL-4). The experiment can be described thus: Apoptosis induction (PARP cleavage, Caspase 3/7) in breast tumor cells. The method, then: as §1
Experiment [6] deals with breast tumor cell lines. The experiment can be described thus: 72-hour tumor cell proliferation assay, molecular profiling in 24 breast tumor cell lines. The method, then: In accordance with the invention, the compound were assessed in a cell-based assay that measures the capacity of the compounds to inhibit tumor cell proliferation following a 72-hour drug exposure. Cell viability was conducted by Invitrogen (breast Oncopanel, Invitrogen, USA), or was determined using CellTiter-Glo® Luminescent Cell Viability Assay (Promega) as follows. Cells were plated at 300-5000 cells/well depending on the cell lines or microtiter plates (96- or 384-well) in 100 μL growth medium in 96-well and 20 μL growth medium in 384-well microtiterplate. For each cell line assayed, cells were plated onto a separate plate for determination of luminescence at t=0 hour and t=72 hour time points. Following overnight incubation at 37° C., luminescence values for the t=0 samples were determined. Dose plates for the t=72 hour time points were treated with compounds diluted into growth medium. Cells were then incubated for 72 hours at 37° C. Luminescence values for the t=72 hour samples were determined. For data analysis, briefly, t=0 values were subtracted from those determined for the t=72 hour time points, for both the treated and untreated samples. Percent differences in luminescence between drug-treated and control values were used to determine the percent inhibition of growth.
Using a set of breast cancer cell lines representing differential receptor expression status and genetic alterations of PIK3CA and PTEN, the anti-proliferative and apoptotic effects of Compound A were investigated.

With `CN(C)CC[C@H](CSc1ccccc1)Nc1ccc(S(=O)(=O)NC(=O)c2ccc(N3CCN(Cc4ccccc4-c4ccc(Cl)cc4)CC3)cc2)cc1[N+](=O)[O-]` [ABT-737, reference compound], the “sensitization to apoptosis in combination with Compound A” value in experiment [1] (T47D cells, ABT-737 combined with Compound A) is “sensitized T47D cells to apoptosis”.
Turning to `COc1c(OCCCN2CCOCC2)ccc2c1N=C(NC(=O)c1cnc(N)nc1)N1CCN=C21` [Compound A, 2-amino-N-[7-methoxy-8-(3-morpholin-4-ylpropoxy)-2,3-dihydroimidazo[1,2-c]quinazolin-5-yl]pyrimidine-5-carboxamide dihydrochloride], the induction of apoptosis entry in experiment [2] is “resistant”. The “anti-proliferative activity IC50” value in experiment [3] is “single-digit”. In experiment [4], the inhibition of proliferation result is “insensitive”. For the same molecule, the apoptosis induction result in experiment [5] (PIK3CA mutant and or HER2 positive breast tumor cells (such as BT20, BT474)) is “strong activity”; in experiment [1] (T47D (PIK3CA mut), high level of Bcl-2), “resistant to apoptosis”. In addition, in experiment [5] (breast cancer cells expressing HER2 and/or PIK3CA mutation in the absence of Bcl-2 (conclusion)), the inducing apoptosis result is given as “extremely effective”. Also, the apoptosis after exposure result in experiment [5] (tumor cells that lack Bcl-2 expression (KPL-4, BT-474, BT-20)) is given as “immediately underwent apoptosis”. Moreover, the IC50 (in general, the concentration that inhibits the measured activity by half) was determined as 19 nM in experiment [6] (breast tumor cells with HER2 expression, n=8 cell lines, proliferation); 17 nM in experiment [6] (breast tumor cells with PIK3CA mutation, n=7 cell lines, proliferation); 773 nM in experiment [6] (wild type PIK3CA and HER2 negative breast cancer cells, n=12, proliferation).
